From ChEMBL document CHEMBL1201862, “PubChem BioAssay data set” (2004)
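Interpolation was linear, between the two tested concentrations surrounding the appropriate level; five concentrations were tested over 48 hours in 96-well plates. Abbreviation: GI50, concentration required for 50% inhibition of growth.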 Calls of active or inactive are those of the source. No stated cut-off is given here; in the data, active = GI50 up to about 1.1 µM and inactive = higher.

Key:
Assay in all cases: DTP human tumour cell line panel, 48 h
MDA-MB-231 = system: MDA-MB-231
M14 = system: M14
SK-MEL-28 = system: SK-MEL-28
SR = system: SR
NCI-H23 = system: NCI-H23
U-251 = system: U-251
OVCAR-4 = system: OVCAR-4
RPMI-8226 = system: RPMI-8226
A549 = system: A549
Hs-578T = system: Hs-578T
HOP-92 = system: HOP-92
SF-539 = system: SF-539
786-0 = system: 786-0
A498 = system: A498
ACHN = system: ACHN
SN12C = system: SN12C
PC-3 = system: PC-3
HCC 2998 = system: HCC 2998

Measured: GI50

CSc1nc2cc(S(=O)(=O)N3CCCCC3)ccc2s1
inactive: MDA-MB-231 > 100 µM | M14 > 100 µM | SK-MEL-28 > 100 µM | SR > 100 µM | NCI-H23 > 100 µM | U-251 > 100 µM | OVCAR-4 > 100 µM | RPMI-8226 > 100 µM | A549 > 100 µM | Hs-578T > 100 µM | HOP-92 > 100 µM | SF-539 > 100 µM | 786-0 > 100 µM | A498 > 100 µM | ACHN > 100 µM | SN12C > 100 µM | PC-3 > 100 µM

C[N+]1(C(CO)Cc2c[nH]c3ccccc23)Cc2ccccc2C1 (configuration not stated)
inactive: MDA-MB-231 > 100 µM | M14 35.8 µM | SK-MEL-28 31.7 µM | SR > 100 µM | HCC 2998 > 100 µM | NCI-H23 > 100 µM | U-251 > 100 µM | OVCAR-4 > 100 µM | RPMI-8226 76.6 µM | A549 59.4 µM | Hs-578T > 100 µM | HOP-92 92.5 µM | 786-0 > 100 µM | A498 66.5 µM | ACHN > 100 µM | SN12C > 100 µM | PC-3 > 100 µM

COc1ccc(OC)c2sc(N3C(=O)/C(=C/c4ccc(N(C)C)cc4)N=C3c3ccccc3)nc12
inactive: MDA-MB-231 > 100 µM | M14 99.3 µM | SK-MEL-28 > 100 µM | SR 19.6 µM | HCC 2998 > 100 µM | U-251 44.1 µM | OVCAR-4 > 100 µM | RPMI-8226 11 µM | A549 83.6 µM | Hs-578T 91 µM | HOP-92 > 100 µM | SF-539 98.2 µM | 786-0 92.3 µM | A498 87.7 µM | ACHN 50.5 µM | SN12C 52.5 µM | PC-3 33 µM

C[C@]12C[C@@H](c3ccccc3)Nc3ccccc3N1C(c1ccccc1)=NO2
inactive: MDA-MB-231 45.5 µM | M14 32.5 µM | SR 1.8 µM | HCC 2998 81.3 µM | NCI-H23 30.7 µM | U-251 44.2 µM | OVCAR-4 24.9 µM | RPMI-8226 20.3 µM | A549 54.3 µM | Hs-578T 77.8 µM | HOP-92 18.5 µM | SF-539 33.4 µM | 786-0 56.6 µM | A498 43.3 µM | ACHN 33.9 µM | SN12C 49.3 µM | PC-3 43 µM

O=S1(=O)N=C(SCc2c[nH]c3ccccc23)N(c2ccccc2)c2ccncc21
inactive: MDA-MB-231 > 100 µM | M14 > 100 µM | SK-MEL-28 > 100 µM | SR 34.2 µM | HCC 2998 > 100 µM | NCI-H23 > 100 µM | U-251 87.5 µM | OVCAR-4 > 100 µM | A549 > 100 µM | Hs-578T > 100 µM | HOP-92 53.7 µM | SF-539 22.8 µM | 786-0 25.1 µM | A498 27 µM | ACHN 65.3 µM | SN12C 74.6 µM | PC-3 66.7 µM

CC(C)Cc1c(C#N)c(C#N)c(N)n1Cc1ccccc1
inactive: MDA-MB-231 > 100 µM | M14 > 100 µM | SR > 100 µM | HCC 2998 > 100 µM | NCI-H23 > 100 µM | U-251 > 100 µM | OVCAR-4 > 100 µM | RPMI-8226 > 100 µM | A549 > 100 µM | Hs-578T > 100 µM | HOP-92 > 100 µM | SF-539 > 100 µM | 786-0 > 100 µM | A498 > 100 µM | ACHN 82.4 µM | SN12C > 100 µM | PC-3 > 100 µM
